Legend:
[1] = biological target: T1, Dual specificity tyrosine-phosphorylation-regulated kinase 2 (Homo sapiens) (UniProt Q92630); assay: Inhibition of DYRK2 (unknown origin) assessed as residual activity at 1000 nM by KINOMEscan analysis relative to control
T1 sequence (whole entry): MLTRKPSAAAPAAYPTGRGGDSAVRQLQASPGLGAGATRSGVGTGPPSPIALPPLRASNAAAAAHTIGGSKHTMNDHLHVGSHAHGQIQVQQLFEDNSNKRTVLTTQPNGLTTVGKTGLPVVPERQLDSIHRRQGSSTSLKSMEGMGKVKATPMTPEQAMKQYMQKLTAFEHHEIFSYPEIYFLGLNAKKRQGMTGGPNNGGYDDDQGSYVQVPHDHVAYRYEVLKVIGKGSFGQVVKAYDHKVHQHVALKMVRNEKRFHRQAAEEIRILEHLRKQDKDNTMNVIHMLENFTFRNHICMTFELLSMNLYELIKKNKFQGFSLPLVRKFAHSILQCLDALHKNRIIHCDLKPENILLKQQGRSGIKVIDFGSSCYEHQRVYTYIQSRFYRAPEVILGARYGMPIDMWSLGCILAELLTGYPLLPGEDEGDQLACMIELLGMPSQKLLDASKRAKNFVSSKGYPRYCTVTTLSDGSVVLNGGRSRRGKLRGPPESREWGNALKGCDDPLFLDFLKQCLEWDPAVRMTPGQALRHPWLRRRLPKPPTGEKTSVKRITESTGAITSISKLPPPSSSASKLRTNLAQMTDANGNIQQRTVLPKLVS

[2] = test system: Tyrosine-protein kinase ABL1 (Homo sapiens), P00519 [M351T]; assay: Inhibition of phosphorylated ABL1 M351T mutant (unknown origin) assessed as residual activity at 1000 nM by KINOMEscan analysis relative to control
[3] = biological target: T2, Serine/threonine-protein kinase D3 (Homo sapiens) (UniProt O94806); assay: Inhibition of PRKD3 (unknown origin) assessed as residual activity at 1000 nM by KINOMEscan analysis relative to control
T2 sequence (whole entry): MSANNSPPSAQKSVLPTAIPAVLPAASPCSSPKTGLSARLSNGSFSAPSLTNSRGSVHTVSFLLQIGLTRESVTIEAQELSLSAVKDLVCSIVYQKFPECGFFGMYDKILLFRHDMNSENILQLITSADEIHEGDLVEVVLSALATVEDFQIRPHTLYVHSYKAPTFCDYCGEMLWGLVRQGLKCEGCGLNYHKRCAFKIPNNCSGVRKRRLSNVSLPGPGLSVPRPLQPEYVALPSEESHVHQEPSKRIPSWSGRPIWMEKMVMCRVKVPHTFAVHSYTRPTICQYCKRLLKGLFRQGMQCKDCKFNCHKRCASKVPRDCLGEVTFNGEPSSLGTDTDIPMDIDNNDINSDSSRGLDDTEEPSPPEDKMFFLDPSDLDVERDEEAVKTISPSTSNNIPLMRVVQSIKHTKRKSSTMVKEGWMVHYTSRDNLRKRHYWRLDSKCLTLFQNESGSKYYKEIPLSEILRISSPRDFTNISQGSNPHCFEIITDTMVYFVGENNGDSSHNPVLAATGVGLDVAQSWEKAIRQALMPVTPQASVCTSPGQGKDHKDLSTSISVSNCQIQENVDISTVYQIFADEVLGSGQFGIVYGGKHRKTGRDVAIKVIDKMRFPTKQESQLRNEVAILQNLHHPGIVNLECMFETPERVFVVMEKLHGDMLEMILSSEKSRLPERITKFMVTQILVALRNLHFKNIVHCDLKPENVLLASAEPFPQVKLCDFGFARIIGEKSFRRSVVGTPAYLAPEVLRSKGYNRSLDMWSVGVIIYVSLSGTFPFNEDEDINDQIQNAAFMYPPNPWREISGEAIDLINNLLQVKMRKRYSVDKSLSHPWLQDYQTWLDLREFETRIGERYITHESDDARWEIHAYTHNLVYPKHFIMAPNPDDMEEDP

[4] = biological target: Cyclin-dependent kinase-like 1 (Homo sapiens) (UniProt Q00532); assay: Inhibition of CDKL1 (unknown origin) assessed as residual activity at 1000 nM by KINOMEscan analysis relative to control
Chain of Cyclin-dependent kinase-like 1 (Homo sapiens) (Q00532 whole entry): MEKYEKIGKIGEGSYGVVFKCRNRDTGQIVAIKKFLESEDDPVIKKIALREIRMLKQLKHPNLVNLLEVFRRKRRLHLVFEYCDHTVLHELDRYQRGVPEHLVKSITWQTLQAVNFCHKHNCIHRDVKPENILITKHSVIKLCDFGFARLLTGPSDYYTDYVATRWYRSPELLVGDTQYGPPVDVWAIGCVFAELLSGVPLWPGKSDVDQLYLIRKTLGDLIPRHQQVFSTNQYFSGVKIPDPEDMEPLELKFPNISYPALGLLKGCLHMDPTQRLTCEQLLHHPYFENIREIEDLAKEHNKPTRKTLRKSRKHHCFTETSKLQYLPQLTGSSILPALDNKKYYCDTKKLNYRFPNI

[5] = test system: ALK tyrosine kinase receptor (Homo sapiens), Q9UM73 [C1156Y]; assay: Inhibition of ALK C1156Y mutant (unknown origin) assessed as residual activity at 1000 nM by KINOMEscan analysis relative to control
[6] = test system: Phosphatidylinositol 4,5-bisphosphate 3-kinase catalytic subunit alpha isoform (Homo sapiens), P42336 [Q546K]; assay: Inhibition of PIK3CA Q546K mutant (unknown origin) assessed as residual activity at 1000 nM by KINOMEscan analysis relative to control
Chain of Phosphatidylinositol 4,5-bisphosphate 3-kinase catalytic subunit alpha isoform (Homo sapiens), P42336 [Q546K] (P42336 whole entry Q546K, canonical isoform): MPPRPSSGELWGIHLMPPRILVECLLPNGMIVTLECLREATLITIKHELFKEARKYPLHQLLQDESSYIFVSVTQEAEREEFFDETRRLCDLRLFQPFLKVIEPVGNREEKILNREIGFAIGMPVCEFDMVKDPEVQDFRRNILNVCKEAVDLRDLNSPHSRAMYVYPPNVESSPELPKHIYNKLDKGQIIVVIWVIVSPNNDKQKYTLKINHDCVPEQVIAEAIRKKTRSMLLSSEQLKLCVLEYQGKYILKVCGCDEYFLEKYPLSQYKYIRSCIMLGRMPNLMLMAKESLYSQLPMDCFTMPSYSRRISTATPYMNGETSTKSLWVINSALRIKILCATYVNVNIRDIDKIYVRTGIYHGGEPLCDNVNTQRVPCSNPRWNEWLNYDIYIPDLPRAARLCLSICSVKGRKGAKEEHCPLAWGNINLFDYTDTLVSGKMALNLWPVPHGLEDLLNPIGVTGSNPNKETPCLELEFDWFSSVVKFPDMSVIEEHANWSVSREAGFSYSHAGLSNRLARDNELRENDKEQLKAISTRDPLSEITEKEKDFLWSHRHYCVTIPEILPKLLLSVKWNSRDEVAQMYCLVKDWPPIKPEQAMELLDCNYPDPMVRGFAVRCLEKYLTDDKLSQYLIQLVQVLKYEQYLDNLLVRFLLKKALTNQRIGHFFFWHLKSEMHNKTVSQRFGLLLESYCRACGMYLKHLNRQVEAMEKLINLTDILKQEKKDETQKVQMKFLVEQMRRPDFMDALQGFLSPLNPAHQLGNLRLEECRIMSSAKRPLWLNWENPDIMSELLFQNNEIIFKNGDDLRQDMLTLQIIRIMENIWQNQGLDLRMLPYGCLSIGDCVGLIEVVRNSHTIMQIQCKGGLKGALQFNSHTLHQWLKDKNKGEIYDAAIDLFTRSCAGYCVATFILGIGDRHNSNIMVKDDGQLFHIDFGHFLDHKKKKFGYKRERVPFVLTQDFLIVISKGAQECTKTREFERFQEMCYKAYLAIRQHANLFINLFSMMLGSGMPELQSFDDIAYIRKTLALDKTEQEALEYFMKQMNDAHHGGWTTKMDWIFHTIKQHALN

[7] = test system: Receptor-type tyrosine-protein kinase FLT3 (Homo sapiens), P36888 [N841I]; assay: Inhibition of FLT3 N841I mutant (unknown origin) assessed as residual activity at 1000 nM by KINOMEscan analysis relative to control
[8] = biological target: Tyrosine-protein kinase FRK (Homo sapiens) (UniProt P42685); assay: Inhibition of FRK (unknown origin) assessed as residual activity at 1000 nM by KINOMEscan analysis relative to control
Chain of Tyrosine-protein kinase FRK (Homo sapiens) (P42685 whole entry): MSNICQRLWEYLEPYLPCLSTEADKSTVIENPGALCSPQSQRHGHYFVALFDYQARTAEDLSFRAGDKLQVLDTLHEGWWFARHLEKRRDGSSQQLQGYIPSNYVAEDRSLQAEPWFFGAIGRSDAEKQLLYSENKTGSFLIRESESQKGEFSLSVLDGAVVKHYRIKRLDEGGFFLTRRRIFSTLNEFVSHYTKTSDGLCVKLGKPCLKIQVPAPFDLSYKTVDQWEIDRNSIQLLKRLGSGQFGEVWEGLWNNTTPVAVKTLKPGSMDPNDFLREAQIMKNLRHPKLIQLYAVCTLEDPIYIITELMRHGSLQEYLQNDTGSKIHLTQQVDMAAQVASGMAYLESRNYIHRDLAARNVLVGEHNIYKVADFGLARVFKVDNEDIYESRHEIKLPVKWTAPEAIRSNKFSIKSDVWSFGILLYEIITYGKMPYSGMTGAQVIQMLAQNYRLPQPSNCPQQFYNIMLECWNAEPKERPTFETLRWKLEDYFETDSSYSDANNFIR

[9] = biological target: Mitogen-activated protein kinase kinase kinase kinase 1 (Homo sapiens) (UniProt Q92918); assay: Inhibition of HPK1 (unknown origin) assessed as residual activity at 1000 nM by KINOMEscan analysis relative to control
[10] = biological target: STE20/SPS1-related proline-alanine-rich protein kinase (Homo sapiens) (UniProt Q9UEW8); assay: Inhibition of STK39 (unknown origin) assessed as residual activity at 1000 nM by KINOMEscan analysis relative to control
[11] = biological target: Dual specificity tyrosine-phosphorylation-regulated kinase 1A (Homo sapiens) (UniProt Q13627); assay: Inhibition of DYRK1A (unknown origin) assessed as residual activity at 1000 nM by KINOMEscan analysis relative to control
[12] = biological target: Phosphatidylinositol 4-kinase beta (Homo sapiens) (UniProt Q9UBF8); assay: Inhibition of PIK4CB (unknown origin) assessed as residual activity at 1000 nM by KINOMEscan analysis relative to control
Chain of Phosphatidylinositol 4-kinase beta (Homo sapiens) (Q9UBF8 2-816 limits assumed): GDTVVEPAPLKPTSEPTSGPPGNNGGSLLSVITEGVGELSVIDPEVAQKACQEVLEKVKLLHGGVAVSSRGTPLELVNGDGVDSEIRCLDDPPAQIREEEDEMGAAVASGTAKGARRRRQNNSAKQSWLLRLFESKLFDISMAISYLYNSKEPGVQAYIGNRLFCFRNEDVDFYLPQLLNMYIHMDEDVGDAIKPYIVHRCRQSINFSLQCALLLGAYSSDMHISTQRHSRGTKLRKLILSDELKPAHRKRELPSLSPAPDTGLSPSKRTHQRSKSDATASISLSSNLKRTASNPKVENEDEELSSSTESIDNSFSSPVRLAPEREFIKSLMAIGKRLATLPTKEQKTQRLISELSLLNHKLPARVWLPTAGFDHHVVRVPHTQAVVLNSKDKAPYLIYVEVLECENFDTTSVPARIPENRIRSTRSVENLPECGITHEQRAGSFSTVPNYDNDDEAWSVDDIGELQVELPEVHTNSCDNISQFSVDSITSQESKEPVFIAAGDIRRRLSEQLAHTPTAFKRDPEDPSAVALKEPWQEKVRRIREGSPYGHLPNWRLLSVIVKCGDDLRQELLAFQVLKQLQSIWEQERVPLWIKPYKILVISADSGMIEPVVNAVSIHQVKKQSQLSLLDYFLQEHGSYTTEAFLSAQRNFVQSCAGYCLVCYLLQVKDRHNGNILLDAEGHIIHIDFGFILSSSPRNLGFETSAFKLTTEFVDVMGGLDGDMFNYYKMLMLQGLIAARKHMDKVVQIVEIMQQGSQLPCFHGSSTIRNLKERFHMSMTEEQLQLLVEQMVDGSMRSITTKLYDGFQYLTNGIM

[13] = biological target: Serine/threonine-protein kinase OSR1 (Homo sapiens) (UniProt O95747); assay: Inhibition of OSR1 (unknown origin) assessed as residual activity at 1000 nM by KINOMEscan analysis relative to control
[14] = biological target: Phosphatidylinositol 4,5-bisphosphate 3-kinase catalytic subunit alpha isoform (Homo sapiens) (UniProt P42336); assay: Inhibition of PIK3CA (unknown origin) assessed as residual activity at 1000 nM by KINOMEscan analysis relative to control
Chain of Phosphatidylinositol 4,5-bisphosphate 3-kinase catalytic subunit alpha isoform (Homo sapiens) (P42336 whole entry, canonical isoform): as the sequence (P42336 whole entry Q546K, canonical isoform) above, with K546Q counted along it

[15] = biological target: Phosphatidylinositol 4-phosphate 5-kinase type-1 alpha (Homo sapiens) (UniProt Q99755); assay: Inhibition of PIP5K1A (unknown origin) assessed as residual activity at 1000 nM by KINOMEscan analysis relative to control
Chain of Phosphatidylinositol 4-phosphate 5-kinase type-1 alpha (Homo sapiens) (Q99755 whole entry): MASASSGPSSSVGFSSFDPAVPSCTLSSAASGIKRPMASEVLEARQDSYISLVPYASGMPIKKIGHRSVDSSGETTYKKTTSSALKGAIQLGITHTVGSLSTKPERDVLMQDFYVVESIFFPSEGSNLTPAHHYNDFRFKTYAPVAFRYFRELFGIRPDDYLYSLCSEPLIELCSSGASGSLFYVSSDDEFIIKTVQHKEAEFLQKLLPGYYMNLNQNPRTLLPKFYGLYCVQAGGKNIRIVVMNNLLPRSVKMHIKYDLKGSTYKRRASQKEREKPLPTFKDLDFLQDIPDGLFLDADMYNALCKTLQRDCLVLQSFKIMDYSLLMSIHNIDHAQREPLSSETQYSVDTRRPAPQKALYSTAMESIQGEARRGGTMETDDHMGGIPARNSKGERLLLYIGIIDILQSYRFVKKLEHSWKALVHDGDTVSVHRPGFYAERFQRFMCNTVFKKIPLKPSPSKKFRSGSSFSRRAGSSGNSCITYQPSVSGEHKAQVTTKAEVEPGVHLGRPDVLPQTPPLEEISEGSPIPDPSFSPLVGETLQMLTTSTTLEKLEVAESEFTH

[16] = biological target: Macrophage-stimulating protein receptor (Homo sapiens) (UniProt Q04912); assay: Inhibition of MST1R (unknown origin) assessed as residual activity at 1000 nM by KINOMEscan analysis relative to control
Chain of Macrophage-stimulating protein receptor (Homo sapiens) (Q04912 25-304 limits assumed): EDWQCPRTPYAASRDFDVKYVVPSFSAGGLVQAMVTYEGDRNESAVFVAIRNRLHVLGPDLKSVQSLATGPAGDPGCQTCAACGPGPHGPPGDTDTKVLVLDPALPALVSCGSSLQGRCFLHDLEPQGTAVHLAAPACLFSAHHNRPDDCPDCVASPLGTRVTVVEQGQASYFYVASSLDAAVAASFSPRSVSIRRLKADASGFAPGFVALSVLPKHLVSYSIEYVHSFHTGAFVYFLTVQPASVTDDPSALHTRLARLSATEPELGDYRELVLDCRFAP
Chain of Macrophage-stimulating protein receptor (Homo sapiens) (Q04912 310-1400 limits assumed): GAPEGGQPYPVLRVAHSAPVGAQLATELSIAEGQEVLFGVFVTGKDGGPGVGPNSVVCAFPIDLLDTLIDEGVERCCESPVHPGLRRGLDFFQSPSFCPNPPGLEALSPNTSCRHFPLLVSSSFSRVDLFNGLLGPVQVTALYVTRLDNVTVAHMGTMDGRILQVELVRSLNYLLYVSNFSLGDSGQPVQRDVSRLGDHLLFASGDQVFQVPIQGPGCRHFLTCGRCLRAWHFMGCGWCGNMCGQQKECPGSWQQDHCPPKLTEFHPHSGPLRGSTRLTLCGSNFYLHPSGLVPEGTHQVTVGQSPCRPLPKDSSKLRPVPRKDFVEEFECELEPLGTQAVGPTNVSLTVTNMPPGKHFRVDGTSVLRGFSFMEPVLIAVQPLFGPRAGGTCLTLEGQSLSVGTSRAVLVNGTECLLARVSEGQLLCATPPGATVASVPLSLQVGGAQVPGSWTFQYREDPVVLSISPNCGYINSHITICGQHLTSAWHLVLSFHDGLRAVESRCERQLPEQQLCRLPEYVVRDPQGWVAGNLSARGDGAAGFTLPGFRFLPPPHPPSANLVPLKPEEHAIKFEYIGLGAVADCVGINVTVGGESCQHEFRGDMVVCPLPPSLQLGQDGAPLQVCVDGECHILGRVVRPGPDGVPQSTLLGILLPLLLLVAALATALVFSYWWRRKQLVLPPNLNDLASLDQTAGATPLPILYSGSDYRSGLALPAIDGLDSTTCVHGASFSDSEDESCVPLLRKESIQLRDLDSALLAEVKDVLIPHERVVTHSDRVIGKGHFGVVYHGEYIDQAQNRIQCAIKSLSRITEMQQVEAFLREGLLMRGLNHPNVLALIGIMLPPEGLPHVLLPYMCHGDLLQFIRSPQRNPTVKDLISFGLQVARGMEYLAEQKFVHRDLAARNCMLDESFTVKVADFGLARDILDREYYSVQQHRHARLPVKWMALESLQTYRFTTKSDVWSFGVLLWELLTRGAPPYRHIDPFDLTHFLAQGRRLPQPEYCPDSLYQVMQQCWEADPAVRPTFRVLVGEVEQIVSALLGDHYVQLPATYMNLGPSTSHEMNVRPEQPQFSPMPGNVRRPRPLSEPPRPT

| Compound | Activity [1] [%] | Activity [2] [%] | Activity [3] [%] | Activity [4] [%] | Activity [5] [%] | Activity [6] [%] | Activity [7] [%] | Activity [8] [%] | Activity [9] [%] | Activity [10] [%] | Activity [11] [%] | Activity [12] [%] | Activity [13] [%] | Activity [14] [%] | Activity [15] [%] | Activity [16] [%] |
| --- | --- | --- | --- | --- | --- | --- | --- | --- | --- | --- | --- | --- | --- | --- | --- | --- |
| COc1cc2nc(C)nc(N[C@H](C)c3cccc(-c4cn[nH]c4)c3)c2cc1OC | 99 | 97 | 100 | 73 | 80 | 87 | 94 | 76 | 97 | 76 | 86 | 69 | 93 | 96 | 93 | 75 |
| COc1cc2ncnc(N[C@H](C)c3cccc4ccccc34)c2cc1OC | 90 | 97 | 100 | 89 | 86 | 83 | 100 | 94 | 100 | 100 | 83 | 82 | 97 | 73 | 90 | 100 |
